From patent publication US11583517B2, “Dual antagonist of PGD2/DPr2 and Thromboxane A2/TPr receptors and use for treatment of maladaptive immune response or thrombotic diathesis” (priority 2020, dated 2023)
“Also recorded” adds a separate entry of the source.

What was measured:
sickle cell disease = assay: SCD patient given COVID-19 vaccine with ramatroban; type: in vivo, human
Method: A patient with sickle cell disease (SCD) has a past history of multiple vaso-occlusive crisis (VOC), acute chest syndrome (ACS) and ischemic cerebrovascular accidents. Patient is administered the AstraZeneca vaccine as prophylaxis against COVID-19. […] The same regimen is repeated at the time of the second dose of the vaccine. […] Other similar patients with SCD are found to experience high incidence of thrombotic events after COVID-19 vaccines.

[1] = tested on: asthma and allergic rhinitis; conditions: added to conventional therapeutic regimen
TAO [2] = assay: TAO patient and randomized control trial versus standard of care; type: in vivo, human
Kawasaki like disease = conditions: in vivo
TAO [3] = assay: male smokers with TAO, ramatroban versus aspirin; type: in vivo, human; conditions: 12 months
Text: All patients can be prescribed standard therapies including pentoxifylline, iloprost, calcium antagonists, statins and low molecular weight heparin or oral anticoagulants. […] There is increase in blood flow in the dorsalis pedis and posterior tibial pulses arteries by doppler examination with a decrease in need for surgical procedures and amputations. Improvement was seen of active vascular lesions and pain symptoms.

viral infection = assay: outbreak of viral infection in animal shelter facility; type: in vivo, dogs and cats; conditions: older animals
Text: In a large animal shelter facility, there was an outbreak of viral infection largely affecting dogs and cats leading to deaths of many older animals, while the young animals survived.

Parkinson's disease = assay: patients with Parkinson's disease; type: in vivo, human
silicosis mice = conditions: silica-induced mouse model; cited from earlier work
pneumoconiosis = assay: non-smoking stone crushers, chemoprophylaxis versus placebo; conditions: 5 years
Alzheimer's disease [4] = assay: AD patients randomized to four treatment groups; type: in vivo, human; conditions: long-term follow-up, compared with placebo
acute viral pneumonia = type: in vivo, human
[5] = tested on: dye nephrotoxicity and acute kidney injury; assay: ramatroban versus placebo prior to cardiac catheterization; type: in vivo, human; conditions: chronic kidney disease or heart failure, compared to placebo
Text: Patients with chronic kidney disease or heart failure are randomized to receive ramatroban versus placebo prior to cardiac catheterization.

[6] = tested on: primary pulmonary hypertension; assay: patient with primary pulmonary hypertension; type: in vivo, human; conditions: person
Text: Patient is diagnosed to have primary pulmonary hypertension.

Alzheimer's disease [7] = conditions: in vivo; cited from earlier work
[8] = retrospective analysis of COVID-19 patients
[9] = retrospective analysis, ramatroban continued after discharge
[10] = Patient 6b, two months after start

O=C(O)CCn1c2c(c3ccccc31)C[C@H](NS(=O)(=O)c1ccc(F)cc1)CC2 [Ramatroban, 3-[(3R)-3-[(4-fluorophenyl)sulfonylamino]-1,2,3,4-tetrahydrocarbazol-9-yl]propanoic acid]
antibody response to vaccine (sickle cell disease; AstraZeneca vaccine, ramatroban 75 mg twice a day orally for one month): robust | VOC, ACS, myocardial infarction or stroke (sickle cell disease; after vaccine, ramatroban 75 mg twice a day orally): no recrudescence or recurrence | improvement in symptoms [1]: 25% | pulmonary function tests and DLCO (COVID-19; after 2 months): normal | chest X-ray (COVID-19; after 2 months, ramatroban continued as outpatient): complete resolution of the infiltrates with no evidence of any pulmonary fibrosis or scarring | time to discharge home (COVID-19; person, 75 mg twice a day): 5 days | lymphocyte counts (COVID-19; [8]): rapid improvement | need for mechanical ventilation (COVID-19; [8]): less | recovery time (COVID-19; [8]): shorter | thrombocytopenia (COVID-19; [8]): rapid recovery | fibrosis and scarring in the lungs (COVID-19; [9]): reduced | lung function (COVID-19; [9]): better | blood flow to the lower extremities (TAO [2]; a) person): improvement | gangrenous toes (TAO [2]; a), chronic smoker): partial resolution and healing | ischemic lesions (TAO [2]; b) randomized control trial, versus control group): resolution | blood flow (TAO [2]; b) randomized control trial, with standard of care versus standard of care): improvement | laboratory parameters (Kawasaki like disease): marked improved | prophylaxis against Kawasaki like disease (Kawasaki like disease): remains healthy | active vascular lesions and pain symptoms (TAO [3]): Improvement | blood flow in the dorsalis pedis and posterior tibial arteries by doppler (TAO [3]): increase | development of ulcers in the fingertips and toes, acrocyanosis, necrosis and loss of substance (TAO [3]): significantly less | need for surgical procedures and amputations (TAO [3]): decrease | infection severity (viral infection): marked decline | mortality (viral infection): marked decrease | falls (Parkinson's disease; Patient 6a): stops falling | hallucinations (Parkinson's disease; Patient 6a): no longer experiences hallucinations | cognitive function (Parkinson's disease; Patient 6a, at 4 months): significant improvement | sense of balance (Parkinson's disease; Patient 6a, first week of treatment): subjective improvement | cognitive ability and sociability (Parkinson's disease; [10]): marked improvements | hallucinations (Parkinson's disease; [10]): reduction | physical functioning (Parkinson's disease; [10]): significant improvement | NLRP3 inflammasome, IL-1beta and caspase-1 (silicosis mice): inhibiting | fibrosis and resulting cardiopulmonary dysfunction (silicosis mice): inhibiting; also recorded: significantly reducing | infiltration with macrophages, lymphocytes and neutrophils (silicosis mice): reducing; also recorded: markedly inhibited | lung compliance (silicosis mice): restoring | silica-induced pulmonary inflammation (silicosis mice): alleviated | lung compliance (pneumoconiosis): higher | lung fibrosis (pneumoconiosis): significantly reduced | cognition and memory (Alzheimer's disease [4]): improvement | lung compliance (acute viral pneumonia; long term follow up): higher | lung fibrosis (acute viral pneumonia; long term follow up): significantly reduced | resolution of pneumonia during the hospitalization (acute viral pneumonia; versus placebo, with conventional therapy): significantly more rapid | dye nephrotoxicity and acute kidney injury [5]: significantly less

COc1ccccc1Oc1c(NS(=O)(=O)c2ccc(C(C)(C)C)cc2)nc(-c2ncccn2)nc1OCCO [bosentan]
clinical response [6]: no response

CCCc1nn(C)c2c(=O)[nH]c(-c3cc(S(=O)(=O)N4CCN(C)CC4)ccc3OCC)nc12 [sildenafil]
clinical response [6]: no response

sodium oligomannate [sodium oligomannate (GV-971)]
cognitive impairment in Alzheimer's disease (Alzheimer's disease [7]): improves | cognition and memory (Alzheimer's disease [4]): improvement
